Laboratory results published in ChEMBL document CHEMBL5620368, “Molecular-level strategic goals and repressors in Leishmaniasis - Integrated data to accelerate target-based heterocyclic scaffolds” (Eur J Med Chem, 2023).
Values after ≈ are worked out from the molar mass of the structure shown.

How the values were obtained:
Leishmania amazonensis [1] = test: Antileishmanial activity against Leishmania amazonensis promastigotes assessed as reduction in parasite growth after 72 hrs by CCK-8 assay; format: functional, organism-based
Leishmania infantum [2] = test: Antileishmanial activity against Leishmania infantum amastigotes assessed as inhibition of parasite growth; format: functional, organism-based
Leishmania amazonensis [3] = test: Antiprotozoal activity against Leishmania amazonensis axenic amastigotes assessed as growth inhibition measured after 5 days by MTT assay; format: functional, organism-based; conditions: 120 h
Leishmania infantum [4] = test: Antileishmanial activity against Leishmania infantum infected in BALB/c mouse assessed as reduction of parasite burden in spleen at 2.5 mg/kg for 15 days relative to control; format: functional; parameters: scale not given: the % may be the effect or the level left; conditions: time 15 day
Leishmania donovani [5] = test: Antileishmanial activity against Leishmania donovani MHOM/IN/1983/AG83 promastigote assessed as reduction in parasite growth incubated for 12 hrs by MTT assay; format: functional, organism-based; conditions: MHOM/IN/1983/AG83, 12 h
Leishmania donovani [6] = test: Antileishmanial activity against Leishmania donovani promastigotes infected in hamster assessed as reduction in parasite load in spleen; format: functional, organism-based
DNA topoisomerase I = molecular target: T1, DNA topoisomerase I (Leishmania donovani (strain BPK282A1), UniProt E9BRC0); test: Inhibition of Leishmania donovani DNA topoisomerase I
T1 sequence (E9BRC0 whole entry): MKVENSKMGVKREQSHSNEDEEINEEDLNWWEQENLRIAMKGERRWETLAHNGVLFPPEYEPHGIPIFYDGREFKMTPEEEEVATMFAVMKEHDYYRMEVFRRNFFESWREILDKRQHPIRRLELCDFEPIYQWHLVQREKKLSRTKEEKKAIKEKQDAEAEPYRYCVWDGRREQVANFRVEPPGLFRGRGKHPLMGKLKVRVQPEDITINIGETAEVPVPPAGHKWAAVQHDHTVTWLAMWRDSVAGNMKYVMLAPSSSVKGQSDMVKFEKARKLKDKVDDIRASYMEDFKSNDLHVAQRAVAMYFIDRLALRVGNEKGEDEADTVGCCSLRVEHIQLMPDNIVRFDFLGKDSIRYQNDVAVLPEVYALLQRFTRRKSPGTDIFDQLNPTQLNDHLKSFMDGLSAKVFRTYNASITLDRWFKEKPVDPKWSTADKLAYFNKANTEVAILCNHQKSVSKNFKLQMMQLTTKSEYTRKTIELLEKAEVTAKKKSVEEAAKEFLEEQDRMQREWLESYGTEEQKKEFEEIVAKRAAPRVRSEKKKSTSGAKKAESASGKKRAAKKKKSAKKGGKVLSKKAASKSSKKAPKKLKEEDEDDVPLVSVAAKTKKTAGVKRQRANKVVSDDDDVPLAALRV

Leishmania amazonensis [7] = test: Antileishmanial activity against Leishmania amazonensis axenic promastigotes assessed as inhibition of parasite growth incubated for 72 hrs by MTT colorimetric assay; format: functional, organism-based
Leishmania amazonensis [8] = test: Antileishmanial activity against Leishmania amazonensis axenic amastigote assessed as inhibition of parasite growth incubated for 72 hrs by MTT colorimetric assay; format: functional, organism-based
Arginase [9] = molecular target: T2, Arginase (Leishmania amazonensis, UniProt O96394); test: Inhibition of Leishmania amazonensis Arginase
Leishmania infantum [10] = test: Antileishmanial activity against Leishmania infantum MCAN/ES/ 89/IPZ229/1/89 axenic amastigotes assessed as reduction in parasite viability treated for 24 hrs by PI staining based flow cytometry; format: functional, organism-based; conditions: MCAN/ES/ 89/IPZ229/1/89, 24 h
Leishmania infantum [11] = test: Antileishmanial activity against Leishmania infantum MCAN/ES/ 89/IPZ229/1/89 promastigote assessed as reduction in parasite viability incubated for 24 hrs by PI staining based flow cytometry; format: functional, organism-based; conditions: MCAN/ES/ 89/IPZ229/1/89, 24 h
[12] = Inhibition of Leishmania infantum Trypanothione reductase
[13] = Inhibition of Leishmania infantum Trypanothione reductase expressed in Escherichia coli BL21 (DE3) using trypanothione as substrate preincubated for 3 mins followed NADPH addition by Dixon plot analysis
Trypanothione reductase = Trypanothione reductase (Leishmania donovani, UniProt P39050); test: Inhibition of Leishmania donovani Trypanothione reductase
Chain of Trypanothione reductase (P39050 whole entry): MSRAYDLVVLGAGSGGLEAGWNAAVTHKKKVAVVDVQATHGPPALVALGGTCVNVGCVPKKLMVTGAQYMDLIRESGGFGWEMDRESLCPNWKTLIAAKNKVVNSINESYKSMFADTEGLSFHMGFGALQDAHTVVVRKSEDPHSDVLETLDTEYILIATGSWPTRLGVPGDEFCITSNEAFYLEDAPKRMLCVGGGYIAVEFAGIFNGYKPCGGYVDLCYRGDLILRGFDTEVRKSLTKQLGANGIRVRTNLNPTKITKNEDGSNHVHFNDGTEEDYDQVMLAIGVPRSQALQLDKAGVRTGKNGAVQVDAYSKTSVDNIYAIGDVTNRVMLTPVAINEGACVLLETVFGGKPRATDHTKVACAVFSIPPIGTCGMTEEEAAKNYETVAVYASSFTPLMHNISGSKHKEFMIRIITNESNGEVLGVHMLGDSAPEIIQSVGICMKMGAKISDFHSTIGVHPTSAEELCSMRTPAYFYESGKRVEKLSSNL

[14] = Inhibition of recombinant rat liver arginase
Arginase [15] = molecular target: T2, Arginase; test: Inhibition of Leishmania amazonensis Arginase assessed as inhibition constant
Leishmania amazonensis [16] = test: Antileishmanial activity against Leishmania amazonensis intracellular amastigotes assessed as parasite growth inhibition; format: functional, organism-based
Leishmania donovani [17] = test: Antileishmanial activity against Leishmania donovani intracellular amastigotes assessed as parasite growth inhibition; format: functional, organism-based
Leishmania donovani [18] = test: Antileishmanial activity against Leishmania donovani promastigotes assessed as parasite growth inhibition incubated for 72 hrs by Alamar blue staining based analysis; format: functional, organism-based
Leishmania donovani [19] = test: Antileishmanial activity against Leishmania donovani MHOM/IN/83/AG83 promastigotes infected in BALB/c mouse assessed as reduction of parasite burden in spleen at 20 mg/kg per day relative to control; format: functional; parameters: scale not given: the % may be the effect or the level left
Leishmania mexicana = test: Antileishmanial activity against Leishmania mexicana promastigotes MHOM/B2/62/BEL21 assessed as reduction in parasite growth by tryphan blue staining based analysis; format: functional, organism-based
[20] = Inhibition of Leishmania braziliensis DNA topoisomerase I
Leishmania amazonensis [21] = test: Antileishmanial activity against Leishmania amazonensis promastigotes assessed as parasite growth inhibition incubated for 24 hrs; format: functional, organism-based

Work on `O=c1cc(-c2ccc(O)c(O)c2)oc2c(C3OC(CO)[C@@H](O)[C@@H](O)[C@@H]3O)c(O)cc(O)c12` (some centres not stated) yielded an IC50 (Leishmania amazonensis [1]) of 15.9 µM.
`COc1cccc(C2Nc3cccnc3[C@H]3c4ccccc4C[C@@H]23)c1` (some centres not stated) showed an IC50 (Leishmania infantum [2]) of 0.54 µM.
`COc1c(O)ccc2c1c[n+](C)c1c3cc4c(cc3ccc21)OCO4` gave an IC50 (Leishmania amazonensis [3]) of 0.54 µM.
`COc1cc2c3c(n(CCCN4CCOCC4)c(=O)c2cc1OC)-c1cc2c(cc1C3=O)OCO2` [INDOTECAN] gave an Activity (Leishmania infantum [4]) of 80%.
In the case of `O=C(c1ccc(Br)cc1)c1cc(O)cc(-c2ccc(Br)cc2)c1`, the IC50 (Leishmania donovani [5]) is reported as 6.01 µM and the IC50 (Leishmania donovani [6]) is reported as 11.5 µM.
`COc1cc2c3c(c1)Oc1c(OC)c(OC)c(OC)c4c1C(Cc1ccc(cc1)Oc1cc(ccc1OC)C[C@H]3N(C)CC2)N(C)CC4` (some centres not stated) gave an IC50 (DNA topoisomerase I) of 50 µM.
`CO[C@@]12[C@H](COC(N)=O)C3=C(C(=O)C(C)=C(N)C3=O)N1C[C@@H]1N[C@@H]12` [MITOMYCIN] showed an IC50 (Leishmania amazonensis [7]) of 12.8 µM and an IC50 (Leishmania amazonensis [8]) of 11.5 µM.
`CC(=O)Cc1ccccc1C(F)(F)C(=O)NNc1ccccc1` showed an IC50 (Arginase [9]) of 12.7 µM.
For `O=C1OC(c2ccc(Cl)cc2)c2cc(-c3ccc(Cl)cc3)cc(O)c21` (configuration not stated), the IC50 (Leishmania donovani [5]) was 5.4 µM and the IC50 (Leishmania donovani [6]) was 9.81 µM.
With `NCCNCc1nccn1-c1ccc(-c2nc(CCc3ccccc3-c3ccccc3)cs2)c(OCCN2CCNC2=O)c1` the EC50 (Leishmania infantum [10]) was 5.3 µM, the EC50 (Leishmania infantum [11]) was 5.3 µM and the IC50 [12] was 8.6 µM.
In the case of `Cc1cc(NC(=O)c2ccc([N+](=O)[O-])s2)ccc1Br`, the IC50 [13] is reported as 0.19 µM.
`O[C@H](CC1c2ccccc2-c2ccccc21)CN1CCN(C[C@H](O)C[C@@H]2c3ccc(Br)cc3-c3cc(Br)cc(Br)c32)CC1` gave an IC50 (Trypanothione reductase) of 98.4 µM.
For `NCCNCc1nccn1-c1ccc(-c2nc(CCc3cccc4ccccc34)cs2)c(OCCN2CCNC2=O)c1`, the EC50 (Leishmania infantum [10]) was 12.8 µM, the EC50 (Leishmania infantum [11]) was 12.8 µM and the IC50 [12] was 5.1 µM.
`Oc1cc(O)c2c(c1)O[C@H](c1ccc(O)c(O)c1)[C@@H](O)C2` [CIANIDANOL] showed an IC50 [14] of 1.8 µM.
Molecule `O=C(/C=C/c1ccc(O)c(O)c1)O[C@@H](Cc1ccc(O)c(O)c1)C(=O)O` has a Ki (Arginase [15]) of 1.3 µM and an IC50 (Arginase [9]) of 28 µM.
For `O=c1cc(-c2ccccc2)oc2c(O)c(O)ccc12` [7,8-DIHYDROXYFLAVONE], the IC50 (Arginase [9]) was 12 µM.
`CC1OC(O[C@H]2[C@H](O)[C@@H](OCCc3ccc(O)c(O)c3)OC(CO)[C@H]2OC(=O)/C=C/c2ccc(O)c(O)c2)C(O)C(O)C1O` (some centres not stated) gave a Ki (Arginase [15]) of 26 µM and an IC50 (Arginase [9]) of 14 µM.
`COc1cc(C)cc2c1C(=O)C1OC1(c1c(C)cc3c(c1OC)C(=O)C1OC1C3=O)C2=O` (configuration not stated) gave an IC50 (Leishmania amazonensis [16]) of 0.18 µM, an IC50 (Leishmania donovani [17]) of 20.7 µM and an IC50 (Leishmania donovani [18]) of 20.7 µM.
Work on `CC(C)CN(C[C@@H](O)[C@H](Cc1ccccc1)NC(=O)O[C@H]1CCOC1)S(=O)(=O)c1ccc(N)cc1` [AMPRENAVIR] yielded an Activity (Leishmania donovani [19]) of 98%.
With `C[C@@H]1[C@H](O)[C@@H](C)/C=C/C=C/C=C/C=C/C=C/C=C/C=C/[C@H](O[C@@H]2O[C@H](C)[C@@H](O)[C@H](N)[C@@H]2O)C[C@@H]2O[C@](O)(C[C@@H](O)C[C@@H](O)[C@H](O)CC[C@@H](O)C[C@@H](O)CC(=O)O[C@H]1C)C[C@H](O)[C@H]2C(=O)O` [AMPHOTERICIN B] the IC50 (Leishmania mexicana) was 0.036 µg/mL (≈ 0.039 µM).
In the case of `Cc1ccc2c(c1)C1c3ccccc3CC1C(c1ccccn1)N2` (configuration not stated), the IC50 (Leishmania mexicana) is reported as 1 µg/mL (≈ 3.2 µM).
In the case of `O=C1C(O)=C(C(C2=C(O)C(=O)c3ccccc3C2=O)c2ccc(F)cc2)C(=O)c2ccccc21`, the IC50 [20] is reported as 0.6 µM.
In the case of `COc1ccc(C(C2=C(O)C(=O)c3ccccc3C2=O)C2=C(O)C(=O)c3ccccc3C2=O)cc1`, the IC50 [20] is reported as > 100 µM.
With `COc1ccc2c(c[n+](C)c3c4cc5c(cc4ccc23)OCO5)c1OC` [CHELERYTHRINE] the IC50 (Leishmania amazonensis [3]) was 0.03 µM.
`CCN(CC)CCOC(=O)c1ccc(NCCC(=O)c2ccc([N+](=O)[O-])cc2)cc1` gave an IC50 (Leishmania amazonensis [21]) of 12.4 µM.
With `O=C1C(O)=C(CC2=C(O)C(=O)c3ccccc3C2=O)C(=O)c2ccccc21` the IC50 [20] was 71 µM.
